Source: US11938120B1 (priority 2023, dated 2024)
Values after ≈ are worked out from the molar mass of the structure shown.

Tests used:
[1] = system: Mycobacterium tuberculosis H37Rv (ATCC 25177); assay: Anti-tubercular activity, colorimetric Resazurin Microplate Assay (REMA), susceptible strain; format: cell-based; conditions: 192 h, Middlebrook 7H9 broth, 37° C., 8 days of incubation then resazurin overnight, read-out: MIC (μg/mL) Susceptible (H37Rv)

SMILES | melting point [°C] | MIC [1] [µg/mL]
CCOC(=O)c1cc(C(=O)c2ccccc2[N+](=O)[O-])n2c1ccc1cc(C)ccc12 [Compound 4d, Ethyl 7-methyl-1-(2-nitrobenzoyl)pyrrolo[1,2-a]quinoline-3-carboxylate] | 174 to 175 | 8 (≈ 19.9 µM)
CCOC(=O)c1cc(C(=O)c2ccccc2)n2c1ccc1cc(C)ccc12 | 139 to 140 | –
CCOC(=O)c1cc(C(=O)c2ccc(Br)cc2)n2c1ccc1cc(C)ccc12 [Compound 4e, Ethyl 1-(4-bromobenzoyl)-7-methylpyrrolo[1,2-a]quinoline-3-carboxylate] | 180 to 181 | 32 (≈ 73.3 µM)
CCOC(=O)c1cc(C(=O)c2ccc(C)cc2)n2c1ccc1cc(C)ccc12 | 155 to 156 | –
CCOC(=O)c1cc(C(=O)c2cc(C(F)(F)F)cc(C(F)(F)F)c2)n2c1ccc1cc(C)ccc12 [Compound 4f, Ethyl 1-(3,5-bis(trifluoromethyl)benzoyl)-7-methylpyrrolo[1,2-a]quinoline-3-carboxylate] | 223 to 224 | 16 (≈ 32.4 µM)
CCOC(=O)c1cc(C(=O)c2ccc(F)cc2)n2c1ccc1cc(C)ccc12 | 163 to 164 | –
